Experimental data: patent US20250026719A1, “NOVEL COMPOUNDS AS INHIBITORS OF PCSK9” (SHENGKE PHARMACEUTICALS (JIANGSU) LTD., priority 2021, published 2025)

How the values were obtained:
[1] = system: HepG2 cells; test: HepG2 cell viability assay (CellTiter-Glo, cellular ATP); format: cell-based; settings: 24 hr, serum-free OptiMEM
Procedure: (§1) HepG2 cells (ATCC, Cat.:HB-8065) were maintained in Growth medium—Eagle's Minimum Essential Medium (Corning, 10-010-CVR), 10% FBS (Gibco, 10099-141), Penicillin (100 units/mL), Streptomycin (100 μg/mL). HepG2 cells were incubated at 37° C., 5% CO2. HepG2 cells were plated in black clear bottom 96-well plates (Corning, 3063) at 40,000 cells/well in 100 μL of growth media. After an overnight incubation, the culture media were changed to serum-free OptiMEM media (Gibco, 31985-062), 90 μL/well. Vehicle, PF-06446846 hydrochloride, berberine, or test compound was added to the culture media, 10 μL/well. After 24 hr cellular ATP levels were measured using CellTiter-Glo® 2.0 Assay (Promega, G9242).

[2] = system: PCSK9; test: PCSK9 ELISA of HepG2 culture medium; format: cell-based; settings: 24 hr
Procedure: as §1, with “flat” for “black clear”, “3599)” for “3063)”, “media(Gibco,” for “media (Gibco,”, “medium was harvested, and 10 μL of the medium” for “cellular ATP levels”, “used for the PCSK9 ELISA(R&D Systems, SPC900).” for “measured using CellTiter-Glo® 2.0 Assay (Promega, G9242).”

[3] = system: PCSK9 mRNA; test: RT-Q-PCR analysis of PCSK9 mRNA in HepG2 cells; format: cell-based; settings: Homo sapiens, 24 h, normalized to GAPDH, read-out: HepG2 Q-PCR PCSK9 mRNA level decrease (10 μM)
Procedure: HepG2 cells (ATCC, Cat.:HB-8065) were maintained in Growth medium—Eagle's Minimum Essential Medium (Corning, 10-010-CVR), 10% FBS (Gibco, 10099-141), Penicillin (100 units/mL), Streptomycin (100 μg/mL). HepG2 cells were incubated at 37° C., 5% CO2.
Cells were cultured in growth medium as described above and treated with the vehicle, Berberine or test compound for 24 h. The RNA was extracted using the Total RNA mini Kit (Tiangen, Beijing, China) according to the manufacturer's instructions. Reverse transcription was carried out using the High-Capacity cDNA reverse transcription kit (Thermo Fisher Scientific). Quantitative real-time PCR was performed using a reaction mixture containing cDNA, specific primers [PCSK9, 5′-[…]-3′ (forward) and 5′-[…]-3′ (reverse); GAPDH, 5′-[…]-3′ (forward) and 5′-[…]-3′ (reverse)] and Maxima SYBR Green/ROX qPCR Master Mix(Thermo Fisher Scientific). PCR amplification was carried out in a Real-Time PCR System. The real-time PCR conditions were 37° C. 10 min; 95° C. 10 min; 95° C. 15 s, 60° C. 30 s, 72° C. 30 s, 40 cycle. The amount of mRNA was normalized to the GAPDH level in the same samples.

[4] = Metabolic stability in human liver microsomes; format: in vitro ADME; settings: human liver microsomes 0.5 mg/mL, 37° C., read-out: Metabolic stability T1/2 (minute) Human
Procedure: (§2) Metabolic Stability of Test Compounds in Incubation with Human, and Rat Liver Microsomes Study Details: • Test concentration: 1 μM; • Reference compound: Ketanserin; • Test systems: human, and rat liver microsomes (from Corning or Xenotech) with final liver microsomal protein concentration of 0.5 mg/mL; • Incubation condition: 0, 5, 15, 30, and 45 min at 37° C.; • Sample size: Duplicates (n=2); • Bioanalytical method: LC-MS/MS;
(§3) [formula] [formula] [formula] • where QH is the hepatic blood flow (mL/min/kg), fub is the fraction of unbound drug in plasma which is assumed to be 1, Clint is the in vitro intrinsic clearance.

[5] = Metabolic stability in rat liver microsomes; format: in vitro ADME; settings: rat liver microsomes 0.5 mg/mL, 37° C., read-out: Metabolic stability T1/2 (minute) Rat
Procedure: as §2, §3

half-life at 1 μM [4] | half-life at 1 μM [5] | SMILES | HepG2 Survival assay (10 μM) [1] | HepG2 PCSK9 ELISA (10 μM) % inhibition [2] | inhibition at 10 µM [3]
 |  | CC(C)c1ccc(Oc2ccc(NC(=O)CN(CC(=O)NC3CC3)C(=O)c3ccc(C(F)(F)F)o3)cc2)cc1 [Compound 201-316] | 108.4% | 89% | 
 |  | CC(C)NC(=O)CN(CC(=O)Nc1ccc(Oc2ccc(C(C)C)cc2)cc1)C(=O)c1cc2cccc(F)c2[nH]1 [Compound 201-311] | 105.9% | 85% | 
 |  | COc1ccc(Oc2ccc(NC(=O)CN(CC(=O)NC3CC3)C(=O)c3ccc(C(F)(F)F)o3)cc2)cc1 [Compound 201-318] | 101.6% |  | 
46.7 min | 42.4 min | CCc1ccc(Oc2ccc(NC(=O)CN(CC(=O)NC(C)C)C(=O)c3cc4cccc(F)c4[nH]3)cc2)cc1 [Compound 201-276] | 99% | 94% | 54%
 |  | CC(C)NC(=O)CN(CC(=O)Nc1ccc(Oc2ccc(C(C)C)cc2)cc1)C(=O)c1ccc(C(F)(F)F)o1 [Compound 201-315] | 102% | 89% | 
 |  | COc1ccc(Oc2ccc(NC(=O)CN(CC(=O)NC3CC3)C(=O)c3ccc(C(F)(F)F)[nH]3)cc2)cc1 [Compound 201-322] | 89.6% |  | 
14.3 min | 17.5 min | CC(C)NC(=O)CN(CC(=O)Nc1ccc(Oc2ccc(C(F)F)cc2)cc1)C(=O)c1cc2cccc(C#N)c2[nH]1 [Compound 201-329] | 106% | 91% | 73%
20.6 min | 41 min | CC(C)NC(=O)CN(CC(=O)Nc1ccc(Oc2cc(F)c(F)c(F)c2)cc1)C(=O)c1cc2cccc(F)c2[nH]1 [Compound 201-331] | 103% | 87% | 92%
93 min | 20.8 min | CC(C)c1ccc(Oc2ccc(NC(=O)CN(CC(=O)NC3CC3)C(=O)c3ccc(C(F)(F)F)[nH]3)cc2)cc1 [Compound 201-320] | 87.3% | 93% | 80%
98.7 min | 417 min | O=C(CN(CC(=O)NC1CC1)C(=O)c1ccc(C(F)(F)F)[nH]1)Nc1ccc(Oc2ccc(C(F)(F)F)cc2)cc1 [Compound 201-293] | 99% | 100% | 50%
 |  | CC(C)c1ccc(Oc2ccc(NC(=O)CN(CC(=O)NC3CC3)C(=O)c3cc4cccc(C#N)c4[nH]3)cc2)cc1 [Compound 201-324] | 101.5% | 72% | 
 |  | COc1ccc(Oc2ccc(NC(=O)CN(CC(=O)NC(C)C)C(=O)c3ccc(C(F)(F)F)o3)cc2)cc1 [Compound 201-317] | 100.8% |  | 
77.8 min | 49.6 min | CC(C)NC(=O)CN(CC(=O)Nc1ccc(Oc2ccc(F)c(F)c2)cc1)C(=O)c1ccc(C(F)(F)F)[nH]1 [Compound 201-283] | 97% | 100% | 77%
 |  | COc1ccc(Oc2ccc(NC(=O)CN(CC(=O)NC3CC3)C(=O)c3cc4cccc(F)c4[nH]3)cc2)cc1 [Compound 201-314] | 103.7% | 97% | 
 |  | COc1ccc2cc3[n+](cc2c1OC)CCc1cc2c(cc1-3)OCO2 [Berberine, reference compound] |  | 52% | 35%
22.4 min | 38.7 min | CC(C)NC(=O)CN(CC(=O)Nc1ccc(Oc2cc(F)c(F)c(F)c2)cc1)C(=O)c1cc2cccc(C#N)c2[nH]1 [Compound 201-332] | 99% | 89% | 85%
14.4 min | 35.4 min | CC(C)NC(=O)CN(CC(=O)Nc1ccc(Oc2ccc(C(F)F)cc2)cc1)C(=O)c1cc2cccc(F)c2[nH]1 [Compound 201-327] | 98% | 90% | 88%
 |  | CC(C)NC(=O)CN(CC(=O)Nc1ccc(Oc2ccc(C(C)C)cc2)cc1)C(=O)c1cc2cccc(C#N)c2[nH]1 [Compound 201-323] | 105.6% | 79% | 
100 min | 138 min | O=C(CN(CC(=O)NC1CC1)C(=O)c1cc2cccc(F)c2[nH]1)Nc1ccc(Oc2ccc(C(F)(F)F)cc2)cc1 [Compound 201-287] | 96% | 99% | 56%
57.2 min | 341 min | CC(C)NC(=O)CN(CC(=O)Nc1ccc(Oc2ccc(C(F)(F)F)cc2)cc1)C(=O)c1cc2cccc(F)c2[nH]1 [Compound 201-275] | 92% | 80% | 75%
52.8 min | 29.6 min | CC(C)c1ccc(Oc2ccc(NC(=O)CN(CC(=O)NC3CC3)C(=O)c3cc4cccc(F)c4[nH]3)cc2)cc1 [Compound 201-312] | 102.7% | 89% | 50%
 |  | COc1ccc(Oc2ccc(NC(=O)CN(CC(=O)NC(C)C)C(=O)c3cc4cccc(F)c4[nH]3)cc2)cc1 [Compound 201-313] | 89.4% | 98% | 
 |  | COc1ccc(Oc2ccc(NC(=O)CN(CC(=O)NC3CC3)C(=O)c3cc4cccc(C#N)c4[nH]3)cc2)cc1 [Compound 201-326] | 112.5% | 83% | 
 |  | CC(C)NC(=O)CN(CC(=O)Nc1ccc(Oc2ccc(C(C)C)cc2)cc1)C(=O)c1ccc(C(F)(F)F)[nH]1 [Compound 201-319] | 76.1% | 96% | 60%
64 min | 66 min | CC(C)NC(=O)CN(CC(=O)Nc1ccc(Oc2ccc(C(F)(F)F)cc2)cc1)C(=O)c1cc2cccc(C#N)c2[nH]1 [Compound 201-284] | 101% | 94% | 90%
40.2 min | 45.4 min | CC(C)NC(=O)CN(CC(=O)Nc1ccc(Oc2ccc(F)c(F)c2)cc1)C(=O)c1cc2cccc(F)c2[nH]1 [Compound 201-277] | 90% | 100% | 86%
159 min | 428 min | CC(C)NC(=O)CN(CC(=O)Nc1ccc(Oc2ccc(C(F)(F)F)cc2)cc1)C(=O)c1ccc(C(F)(F)F)[nH]1 [Compound 201-281] | 98% | 100% | 70%
